pIC50: −log10 of the molar value.
How the values were obtained:
ZAP-70 = molecular target: T1, ZAP-70 (Homo sapiens, UniProt P43403); experiment: ZAP-70 kinobeads assay; type: binding; conditions: cell lysate, dot blot detection
T1 construct: endogenous in cells; host or cells: cell lysate
T1 sequence (P43403 1-619): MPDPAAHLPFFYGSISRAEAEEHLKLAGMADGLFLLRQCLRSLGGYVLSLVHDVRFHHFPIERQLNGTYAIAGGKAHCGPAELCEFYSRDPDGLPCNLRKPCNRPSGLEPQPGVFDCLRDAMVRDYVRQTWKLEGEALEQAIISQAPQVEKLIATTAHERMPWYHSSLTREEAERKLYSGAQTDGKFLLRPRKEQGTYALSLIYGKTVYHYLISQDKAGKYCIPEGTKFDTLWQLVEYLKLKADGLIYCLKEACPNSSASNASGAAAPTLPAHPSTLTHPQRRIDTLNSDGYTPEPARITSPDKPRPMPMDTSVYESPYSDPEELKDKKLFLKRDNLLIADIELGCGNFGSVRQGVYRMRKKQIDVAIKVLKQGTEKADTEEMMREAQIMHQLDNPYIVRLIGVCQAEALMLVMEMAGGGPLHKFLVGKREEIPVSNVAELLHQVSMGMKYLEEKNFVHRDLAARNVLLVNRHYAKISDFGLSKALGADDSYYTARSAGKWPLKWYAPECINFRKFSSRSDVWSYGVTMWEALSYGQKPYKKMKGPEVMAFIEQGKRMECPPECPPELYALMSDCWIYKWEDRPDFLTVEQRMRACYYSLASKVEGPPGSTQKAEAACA
Method: The compounds of the present invention as described in the previous examples can be tested in the ZAP-70 kinobeads assay as described (EP-A 1862802 and WO-A 2007/137867). Briefly, test compounds (at various concentrations) and the affinity matrix with the immobilized aminopyrido-pyrimidine ligand 24 are added to cell lysate aliquots and allowed to bind to the proteins in the lysate sample. After the incubation time the beads with captured proteins are separated from the lysate. Bound proteins are then eluted and the presence ZAP-70 is detected and quantified using a specific antibody in a dot blot procedure and the Odyssey infrared detection system.

Jurkat cells = experiment: Calcium release assay (Fluo-4, flow cytometry, anti-CD3 stimulation); type: cell-based; conditions: Homo sapiens; intracellular Ca2+ release in Jurkat cells after anti-CD3 activation
Method: Compounds of the present invention were tested in a Calcium release assay as described below.
The development of fluorescent probes makes it possible to measure the concentration of intracellular free Calcium ions in single living cells. Cells are first loaded with a cell-permeable Ca^2+-sensitive dye, then the test compound is added. Finally, cells are activated through the T cell receptor with an anti-CD3 antibody shortly before data acquisition on the flow cytometer. The release of Ca^2+ is measured as a function of time after cell stimulation. This protocol describes the flow cytometry method using the Fluo-3 and Fluo-4 dyes (Minta et al., 1989, J. Biol. Chem. 264(14):8171-8178) to measure the intracellular Ca^2+ concentration in Jurkat cells (see also June et al., 1997, Measurement of intracellular calcium ions by flow cytometry. In: Current Protocols in Cytometry (1997) Unit 9.8.1-9.8.19, John Wiley & Sons, Inc.).
1) Prepare a work plan indicating the number of samples to be analyzed including controls. 2) Cell harvest: Centrifuge 50 to 100 ml of a Jurkat cell culture for 5 minutes at 1100 rpm. Discard the supernatant, pool the resuspended cell pellets in a single 50 ml Falcon tube, and fill up to 50 ml with PBS-CaCl2 (without FCS). Centrifuge again sample again. 3) Resuspend cell pellet with PBS-CaCl2 (without FCS) to achieve a concentration not lower than 10×10^6 cells/ml. Prepare an adequate dilution to evaluate the cell concentration and count the cells. 4) Separate the volume of cells needed to be loaded (for example […] for 20 samples) in a 50 ml Falcon tube. Fill up with PBS-CaCl2 to 900 μl for 107 cells. 5) Prepare in the dark a 1:1 mix of FLUO-4 (1 mM)+Pluronic F-127 (20%). 5 μl of Fluo-4 are needed per 107 cells. 6) Prepare a 1/10 dilution of this mix with PBS-CaCl2 (in the dark; for example 5 μl Fluo-4+5 μl F-127 completed to 100 μl). 7) Add the dye solution to the cells. […] 8) Incubate the sample for 30 minutes in a cell incubator (37° C., 5% CO2). Mix from time to time. 9) During this time prepare the adequate test compound dilution in PBS-CaCl2 (with 10% FCS). The solution should be 10 times more concentrated than the desired final concentration. Vortex each dilution. Prepare also the antibody dilutions: anti-CD3 (1/200) and GAM (1/25). 10) Label FACS tubes and distribute in the corresponding tube 30 μl of the compound dilution or only buffer for the control tubes. 11) After 30 minutes of incubation wash the cells twice in PBS-CaCl2 (with 10% FCS). During the washing steps make sure that the flow cytometer is already “ON” in order to warm the laser. 12) Resuspend the cell pellet in PBS-CaCl2 (with 10% FCS) at a concentration of 1.5×10^6 cells/ml. 13) Distribute 300 μl of cell suspension into the FACS tubes and mix gently. The compound incubation is starting. Keep samples at room temperature in the dark. 14) Open the settings of the cytometer. It is advised to have a template ready which is used for all measurements. Settings of the machine should also be the same from one experiment to the other which permits to evaluate the reproducibility of the cell preparation. 15) In Setup modus control your cell preparation on the cytometer. Cells should fit in the pre-defined gates. 16) During the compound incubation time, check also that cells are responding to the anti-CD3 activation as expected. Set a timer at 8 sec. Add 6 μl of anti-CD3 dilution (0.2 μg/ml final) and mix gently. Add 1 μl of GAM dilution (0.75 μg/ml final) and mix gently. Incubate the samples in water bath at 37° C. while starting timer. After 8 seconds of incubation, acquire data at medium speed for 200 seconds. A clear increase of fluorescence should appear after 1 minute. 17) Make sure that the cells rest and equilibrate at room temperature 15 minutes before FACS data acquisition 18) Data acquisition: Samples to be compared should be measured consecutively. 19) For a better reproducibility, make sure that data for the loaded cells are acquired within 2 hours. […]

pIC50 (ZAP-70) | pIC50 (Jurkat cells) | Compound
> 7.00 | > 7.00 | COc1cccc(Nc2nc(Nc3cc(OC)c(OC)c(OC)c3)ncc2F)c1NS(N)(=O)=O [Example 32, N-(2-(5-fluoro-2-(3,4,5-trimethoxyphenylamino)pyrimidin-4-ylamino)-6-methoxyphenyl)sulfamide]
> 7.00 | > 6.00 | CCOc1cccc(Nc2nc(Nc3cc(OC)c(OC)c(OC)c3)ncc2F)c1NS(N)(=O)=O [Example 33, N-(2-ethoxy-6-(5-fluoro-2-(3,4,5-trimethoxyphenylamino)pyrimidin-4-ylamino)phenyl)sulfamide]
> 6.00 | > 6.00 | COc1cc(Nc2ncc(F)c(Nc3ccc(C)cc3NS(N)(=O)=O)n2)cc(OC)c1OC [Example 34, N-(2-(5-Fluoro-2-(3,4,5-trimethoxyphenylamino)pyrimidin-4-ylamino)-5-methylphenyl)sulfamide]
> 6.00 | > 6.00 | COc1cc(Nc2ncc(F)c(Nc3ccc(N4CCOCC4)cc3NS(N)(=O)=O)n2)cc(OC)c1OC [Example 35, N-(2-(5-Fluoro-2-(3,4,5-trimethoxyphenylamino)pyrimidin-4-ylamino)-5-morpholinophenyl)sulfamide]

The next lines start with the compound.

Compound | pIC50 (ZAP-70) | pIC50 (Jurkat cells)
COc1cc(Nc2ncc(F)c(Nc3ccc(C)c(C)c3NS(N)(=O)=O)n2)cc(OC)c1OC [Example 31, N-(6-(5-fluoro-2-(3,4,5-trimethoxyphenylamino)pyrimidin-4-ylamino)-2,3-dimethylphenyl)sulfamide] | > 6.00 | > 6.00
COc1ccc(NS(N)(=O)=O)c(Nc2nc(Nc3cc(OC)c(OC)c(OC)c3)ncc2F)c1 [Example 36, N-(2-(5-fluoro-2-(3,4,5-trimethoxyphenylamino)pyrimidin-4-ylamino)-4-methoxyphenyl)sulfamide] | > 4.30 | > 6.00
COc1cc(Nc2ncc(F)c(Nc3cc(F)ccc3NS(N)(=O)=O)n2)cc(OC)c1OC [Example 37, N-(4-fluoro-2-(5-fluoro-2-(3,4,5-trimethoxyphenylamino)pyrimidin-4-ylamino)phenyl)sulfamide] | > 6.00 | > 6.00

Source: patent publication US20110028405A1, “SULFAMIDES AS ZAP-70 INHIBITORS” (priority 2007, published 2011)
